Assay results from patent publication EP0164320A1, “Pharmaceutical preparations for spinal analgesia containing guanfacine, and method for their preparation” (priority 1984, dated 1985).

Tests used:
Assay type in all cases: in vivo
mice [1] = assay: tail-flick test after intrathecal injection in mice; parameters: unit not given here; conditions: 15 minutes after intrathecal injection of 5 µl, mean ± S.E.M.
Method: (§1) Antinociceptive effects in mice were established in the following test. The effect 15 minutes after intrathecal injection of a volume of 5 µl containing different doses of guanfacine was established. The vehicle used was a physiological solution of sodium chloride.

male Sprague-Dawley rats [2] = assay: tail-flick test after intrathecal injection in rats; parameters: unit not given here; conditions: rat, mean ± S.E.M.
Method: (§2) The antinociceptive effect of guanfacine may be established by the hot plate and tail-flick test.
(§3) Testing of tail-flick was performed using an IITC Inc. Mod. 33 Analgesia- meter@, with the light focused on the tip of the tail (d'Amour, F.E. and Smith, D.L. J. Pharmacol. Exp. Ther. 72, 74, 1941). The intensity of the beam was adjusted to give a reaction time of 3-4 sec. before intrathecal injection of the drug solutions. For the hot plate testing, a modification of the Eddy and Leimbach method (Eddy, N.B. and Leimbach, D. J. Pharmacol. Exp. Ther. 107, 385, 1952) was used. An IITC Inc. Mod. 35-D Analgesiameter® was set at a temperature of 58^±0.2°C. The criteria for a pain response was licking of either of the hindpaws.
(§4) We examined the pain responsiveness of male Sprague-Dawley rats in a weight range of 300-350 g. […] The catheter was fixed at a surgical operation. The animals were kept in the animal colony in separate cages until testing took place 1 week after operation. The drug was administered in a volume of 15 µl, and testing of hot plate and tail-flick reaction latencies took place at the intervals given in the tables. Animals given the combination of guanfacine and bupivacaine were not tested until the local anaesthetic effect of bupivacaine had disappeared, which normally took between 10 and 15 minutes.
(§5) Guanfacine or a physiologically acceptable salt thereof was administered alone or in combination with the local anaesthetic agent bupivacaine or a physiologically acceptable salt thereof. When guanfacine'was administered together with bupivacaine first an initial phase of regional anaesthesia restricted to the hind-legs and the lower derma- tomes was obtained. When this effect had disappeared the animals were still non-responsive in the hot plate and tail-flick test for up to at least 7 hours after the injection, cf Table 2 below.

mice [3] = assay: behavioural response (paw licking) after subcutaneous formaline in mice; conditions: 1% formaline s.c. 20 µl, 5 µl, 0.01% (0.5 µg) of guanfacine i.th. 15 minutes before, ± S.E.M., 10 animals
Method: Behavioural response in mice after subcutaneous injection of 20 µl of a physiological solution of sodium chloride or a 1 % solution of formaline on the dorsum of either hind paw.
5 µl, 0.01% ([…]) of guanfacine or the same volume of a physiological solution of sodium chloride were injected intrathetecally 15 minutes before the subcutaneous injection of formaline. The accumulated reaction, i.e. the total time of licking on the injected paw, was measured during the 5 minutes after the injection of formaline.
The results are expressed as mean accumulated response during 5 minutes in seconds ± S.E.M. Each group consisted of 10 animals.

mice [4] = assay: hot-plate test after intrathecal injection in mice; parameters: unit not given here; conditions: 15 minutes after intrathecal injection of 5 µl, mean ± S.E.M.
Method: as §1

male Sprague-Dawley rats [5] = assay: hot plate test after intrathecal injection in rats; parameters: unit not given here; conditions: rat, mean ± S.E.M.
Method: as §2, §3, §4, §5

[6] = 0.001 % guanfacine, dose 0.05 µg
[7] = 0.002 % guanfacine, dose 0.1 µg
[8] = 0.004 % guanfacine, dose 0.2 µg
[9] = 0.006 % guanfacine, dose 0.3 µg
[10] = intrathecal 75 µg guanfacine (15 µl 0.5 %), 1 min, 100x(test-latency - pre-drug latency)/pre-drug latency, n=4
[11] = intrathecal 75 µg guanfacine, 5 min
[12] = intrathecal 75 µg guanfacine, 10 min
[13] = intrathecal 75 µg guanfacine, 20 min
[14] = intrathecal 75 µg guanfacine, 30 min
[15] = intrathecal 75 µg guanfacine, 45 min
[16] = intrathecal 75 µg guanfacine, 8 hours
[17] = intrathecal 75 µg guanfacine, 22 hours

For `N=C(N)NC(=O)Cc1c(Cl)cccc1Cl` [guanfacine, 2,6-dichlorophenyl-acetyl-guanidine], the “Antinociception tail-flick (cut-off=10 sec)” value (mice [1]; [6]) was 29±23, the “Antinociception tail-flick (cut-off=10 sec)” value (mice [1]; [7]) was 26±13 and the “Antinociception tail-flick (cut-off=10 sec)” value (mice [1]; [8]) was 59±17. The “Antinociception tail-flick (cut-off=10 sec)” value (mice [1]; [9]) was 86±18, the “Antinociception tail-flick (cut-off=10 sec.)” value (male Sprague-Dawley rats [2]; [10]) was 27.5±17 and the “Antinociception tail-flick (cut-off=10 sec.)” value (male Sprague-Dawley rats [2]; [11]) was 92.75±26. For the same compound, the “Antinociception tail-flick (cut-off=10 sec.)” value (male Sprague-Dawley rats [2]; [12]) was 110±33, the “Antinociception tail-flick (cut-off=10 sec.)” value (male Sprague-Dawley rats [2]; [13]) was 147±13 and the “Antinociception tail-flick (cut-off=10 sec.)” value (male Sprague-Dawley rats [2]; [14]) was 153±10. For the same compound, the “Antinociception tail-flick (cut-off=10 sec.)” value (male Sprague-Dawley rats [2]; [15]) was 156±8, the “Antinociception tail-flick (cut-off=10 sec.)” value (male Sprague-Dawley rats [2]; [16]) was 138±20 and the “Antinociception tail-flick (cut-off=10 sec.)” value (male Sprague-Dawley rats [2]; [17]) was 62±8. The “mean accumulated response (total time of licking on the injected paw) during 5 minutes” value (mice [3]) was 9 ± 2 s, the “Antinociception hot-plate (cut-off=30 sec)” value (“Antinociception hot-plate” below) (mice [4]; [6]) was 128±29 and the “Antinociception hot-plate” value (mice [4]; [7]) was 152±33. The “Antinociception hot-plate” value (mice [4]; [8]) was 152±47, the “Antinociception hot-plate” value (mice [4]; [9]) was 168±40 and the “Antinociception hot plate (cut-off=30 sec.)” value (“Antinociception hot plate” for short) (male Sprague-Dawley rats [5]; [10]) was -15±12. For the same compound, the “Antinociception hot plate” value (male Sprague-Dawley rats [5]; [11]) was -15±6, the “Antinociception hot plate” value (male Sprague-Dawley rats [5]; [12]) was 29±18 and the “Antinociception hot plate” value (male Sprague-Dawley rats [5]; [13]) was 62±29. The “Antinociception hot plate” value (male Sprague-Dawley rats [5]; [14]) was 116±36, the “Antinociception hot plate” value (male Sprague-Dawley rats [5]; [15]) was 239±23 and the “Antinociception hot plate” value (male Sprague-Dawley rats [5]; [16]) was 124±56. The “Antinociception hot plate” value (male Sprague-Dawley rats [5]; [17]) was 41±12 and the “Antinociception hot plate” value (male Sprague-Dawley rats [5]; intrathecal 75 µg guanfacine, 27 hours) was 25±16.
